How the values were obtained:
Format in all cases: in vivo
Spodoptera littoralis = experiment: Example B6: Spodoptera littoralis (Egyptian cotton leaf worm), cotton leaf discs, L1 larvae; conditions: foliar, 72 h, application rate 200 ppm, 3 days after infestation, read-out: control in at least one of the categories (mortality, anti-feedant effect, or growth inhibition)
Procedure: Cotton leaf discs were placed onto agar in 24-well microtiter plates and sprayed with aqueous test solutions prepared from 10′000 ppm DMSO stock solutions. After drying the leaf discs were infested with five L1 larvae. The samples were assessed for mortality, anti-feeding effect, and growth inhibition in comparison to untreated samples 3 days after infestation. Control of Spodoptera littoralis by a test sample is given when at least one of the categories mortality, anti-feedant effect, and growth inhibition is higher than the untreated sample.

Plutella xylostella = experiment: Example B3: Plutella xylostella (diamond back moth), artificial diet, eggs; conditions: 192 h, application rate 200 ppm, 8 days after infestation, read-out: control in at least one of the two categories (mortality or growth inhibition)
Procedure: 24-well microtiter plates with artificial diet were treated with aqueous test solutions prepared from 10′000 ppm DMSO stock solutions by pipetting. After drying, Plutella eggs were pipetted through a plastic stencil onto a gel blotting paper and the plate was closed with it. The samples were assessed for mortality and growth inhibition in comparison to untreated samples 8 days after infestation. The following compounds gave an effect of at least 80% control in at least one of the two categories (mortality or growth inhibition) at an application rate of 200 ppm: P1, P2, P3, P4, P5, P6

Chilo suppressalis = experiment: Example B9: Chilo suppressalis (striped rice stemborer), artificial diet, L2 larvae; conditions: 144 h, application rate 200 ppm, 6 days after infestation, read-out: control in at least one of the three categories (mortality, anti-feedant effect or growth inhibition)
Procedure: 24-well microtiter plates with artificial diet were treated with aqueous test solutions prepared from 10′000 ppm DMSO stock solutions by pipetting. After drying, the plates were infested with L2 larvae (6-8 per well). The samples were assessed for mortality, anti-feeding effect, and growth inhibition in comparison to untreated samples 6 days after infestation. Control of Chilo suppressalis by a test sample is given when at least one of the categories mortality, anti-feedant effect, and growth inhibition is higher than the untreated sample.

Euschistus heros = experiment: Example B2: Euschistus heros (neotropical brown stink bug), soybean leaves sprayed, N2 nymphs; conditions: 120 h, application rate 200 ppm, 5 days after infestation, read-out: control in at least one of the two categories (mortality or growth inhibition)
Procedure: Soybean leaves on agar in 24-well microtiter plates were sprayed with aqueous test solutions prepared from 10′000 ppm DMSO stock solutions. After drying the leaves were infested with N2 nymphs. The samples were assessed for mortality and growth inhibition in comparison to untreated samples 5 days after infestation.

Diabrotica balteata = experiment: Example B1: Diabrotica balteata (corn root worm), maize sprouts sprayed, L2 larvae; conditions: 96 h, application rate 200 ppm, 4 days after infestation, read-out: control in at least one of the two categories (mortality or growth inhibition)
Procedure: Maize sprouts placed onto an agar layer in 24-well microtiter plates were treated with aqueous test solutions prepared from 10′000 ppm DMSO stock solutions by spraying. After drying, the plates were infested with L2 larvae (6 to 10 per well). The samples were assessed for mortality and growth inhibition in comparison to untreated samples 4 days after infestation.

Tetranychus urticae = experiment: Example B7: Tetranychus urticae (two-spotted spider mite) feeding/contact activity, bean leaf discs; conditions: foliar, 192 h
Procedure: Bean leaf discs on agar in 24-well microtiter plates were sprayed with aqueous test solutions prepared from 10′000 ppm DMSO stock solutions. After drying the leaf discs were infested with a mite population of mixed ages. The samples were assessed for mortality on mixed population (mobile stages) 8 days after infestation.

Myzus persicae [1] = experiment: Example B5: Myzus persicae (green peach aphid) intrinsic activity, sucrose solution, 24-well; conditions: 120 h, test rate 12 ppm, 5 days after infestation
Procedure: Test compounds prepared from 10′000 ppm DMSO stock solutions were applied by pipette into 24-well microtiter plates and mixed with sucrose solution. The plates were closed with a stretched Parafilm. A plastic stencil with 24 holes was placed onto the plate and infested pea seedlings were placed directly on the Parafilm. The infested plate was closed with a gel blotting paper and another plastic stencil and then turned upside down. The samples were assessed for mortality 5 days after infestation.

Thrips tabaci = experiment: Example B8: Thrips tabaci (onion thrips) feeding/contact activity, sunflower leaf discs; conditions: foliar, 144 h, application rate 200 ppm, 6 days after infestation, mixed ages
Procedure: Sunflower leaf discs were placed on agar in 24-well microtiter plates and sprayed with aqueous test solutions prepared from 10′000 ppm DMSO stock solutions. After drying the leaf discs were infested with a thrips population of mixed ages. The samples were assessed for mortality 6 days after infestation.

Myzus persicae [2] = experiment: Example B10: Myzus persicae (green peach aphid), sucrose solution, 96-well; conditions: 120 h, application rate 50 ppm, 5 days after infestation
Procedure: Test compounds prepared from 10′000 ppm DMSO stock solutions were applied by a liquid handling robot into 96-well microtiter plates and mixed with a sucrose solution. Parafilm was stretched over the 96-well microtiter plate and a plastic stencil with 96 holes was placed onto the plate. Aphids were sieved into the wells directly onto the Parafilm. The infested plates were closed with a gel blotting card and a second plastic stencil and then turned upside down. The samples were assessed for mortality 5 days after infestation.

Myzus persicae [3] = experiment: Example B4: Myzus persicae (green peach aphid) feeding/contact activity, sunflower leaf discs; conditions: foliar, 144 h, application rate 200 ppm, 6 days after infestation, mixed ages
Procedure: Sunflower leaf discs were placed onto agar in a 24-well microtiter plate and sprayed with aqueous test solutions prepared from 10′000 ppm DMSO stock solutions. After drying, the leaf discs were infested with an aphid population of mixed ages. The samples were assessed for mortality 6 days after infestation.

CC(NC(=O)c1cc(C(F)(F)F)cc(C(F)(F)F)c1)c1ncnn1-c1ccc(Cl)cn1 (stereo not shown) [Compound P1, N-[1-[2-(5-chloro-2-pyridyl)-1,2,4-triazol-3-yl]ethyl]-3,5-bis(trifluoromethyl)benzamide]
≥ 80%: percent control (mortality, anti-feedant effect or growth inhibition) at 200 ppm (Spodoptera littoralis) | percent control (mortality or growth inhibition) at 200 ppm (Plutella xylostella) | percent control (mortality, anti-feedant effect or growth inhibition) at 200 ppm (Chilo suppressalis) | percent control (mortality or growth inhibition) at 200 ppm (Euschistus heros) | percent control (mortality or growth inhibition) at 200 ppm (Diabrotica balteata)

CC(c1ncnn1-c1ncccc1F)N(CC1CC1)C(=O)c1cc(C(F)(F)F)cc(C(F)(F)F)c1 (stereo not shown) [Compound P2, N-(cyclopropylmethyl)-N-[1-[2-(3-fluoro-2-pyridyl)-1,2,4-triazol-3-yl]ethyl]-3,5-bis(trifluoromethyl)benzamide]
≥ 80%: percent control (mortality, anti-feedant effect or growth inhibition) at 200 ppm (Spodoptera littoralis) | percent control (mortality or growth inhibition) at 200 ppm (Plutella xylostella) | percent control (mortality or growth inhibition) at 200 ppm (Diabrotica balteata)

CC(NC(=O)c1cc(C(F)(F)F)cc(C(F)(F)F)c1)c1ncnn1-c1ccc(F)cn1 (stereo not shown) [Compound P3, N-[1-[2-(5-fluoro-2-pyridyl)-1,2,4-triazol-3-yl]ethyl]-3,5-bis(trifluoromethyl)benzamide]
≥ 80%: mortality at 200 ppm (Tetranychus urticae) | percent control (mortality, anti-feedant effect or growth inhibition) at 200 ppm (Spodoptera littoralis) | percent control (mortality or growth inhibition) at 200 ppm (Plutella xylostella) | mortality at 12 ppm (Myzus persicae [1]) | percent control (mortality or growth inhibition) at 200 ppm (Euschistus heros) | percent control (mortality or growth inhibition) at 200 ppm (Diabrotica balteata)

CC(NC(=O)c1cc(C(F)(F)F)cc(C(F)(F)F)c1)c1ncnn1-c1ncccc1F (stereo not shown) [Compound P4, N-[1-[2-(3-fluoro-2-pyridyl)-1,2,4-triazol-3-yl]ethyl]-3,5-bis(trifluoromethyl)benzamide]
≥ 80%: mortality at 200 ppm (Thrips tabaci) | mortality at 50 ppm (Myzus persicae [2]) | percent control (mortality, anti-feedant effect or growth inhibition) at 200 ppm (Spodoptera littoralis) | percent control (mortality or growth inhibition) at 200 ppm (Plutella xylostella) | percent control (mortality or growth inhibition) at 200 ppm (Euschistus heros) | percent control (mortality or growth inhibition) at 200 ppm (Diabrotica balteata)

CC(c1ncnn1-c1ccc(F)cn1)N(CC1CC1)C(=O)c1cc(C(F)(F)F)cc(C(F)(F)F)c1 (stereo not shown) [Compound P5, N-(cyclopropylmethyl)-N-[1-[2-(5-fluoro-2-pyridyl)-1,2,4-triazol-3-yl]ethyl]-3,5-bis(trifluoromethyl)benzamide]
≥ 80%: mortality at 200 ppm (Tetranychus urticae) | mortality at 200 ppm (Myzus persicae [3]) | percent control (mortality, anti-feedant effect or growth inhibition) at 200 ppm (Spodoptera littoralis) | percent control (mortality or growth inhibition) at 200 ppm (Plutella xylostella) | percent control (mortality or growth inhibition) at 200 ppm (Euschistus heros) | percent control (mortality or growth inhibition) at 200 ppm (Diabrotica balteata)

CC(NC(=O)c1cc(C(F)(F)F)cc(C(F)(F)F)c1)c1ncnn1-c1cccc(F)n1 (stereo not shown) [Compound P6, N-[1-[2-(6-fluoro-2-pyridyl)-1,2,4-triazol-3-yl]ethyl]-3,5-bis(trifluoromethyl)benzamide]
≥ 80%: percent control (mortality or growth inhibition) at 200 ppm (Plutella xylostella) | percent control (mortality, anti-feedant effect or growth inhibition) at 200 ppm (Chilo suppressalis)
